Assays:
Assay in all cases: MTS viability assay, ZD2767P prodrug, untransduced vs VV-CPG2-transduced cells
[1] = system: WM226.4 cells; format: cell-based; conditions: WM226.4 cells transduced with VV-CPG2 at MOI 0.1 vs untransduced
[2] = system: SW620 cells; format: cell-based; conditions: SW620 cells transduced with VV-CPG2 at MOI 0.1 vs untransduced
[3] = system: FaDu cells; format: cell-based, human; conditions: FaDu cells transduced with VV-CPG2 at MOI 0.1 vs untransduced

For `O=C(O)CC[C@H](NC(=O)Oc1ccc(N(CCI)CCI)cc1)C(=O)O` [ZD2767P, N-(4-[bis(2-iodoethyl)amino]phenoxycarbonyl)-L-glutamic acid], the “reduction of the EC50 of ZD2767P” value [1] was 114 fold, the “reduction of the EC50 of ZD2767P” value [2] was 119 fold and the “reduction of the EC50 of ZD2767P” value [3] was 103 fold.

Source: US20200216818A1 (priority 2013, published 2020)
